# Measurements published in article PMC9571264 (Molecules, 2022).
# What was measured:
# [1] = tested on: P53, Bax, Caspase 3, Caspase 7, PI3k, AKT, and Bcl-2 mRNA in HepG2 cells; assay: RT-PCR relative mRNA expression of apoptosis-related genes, HepG2; format: cell-based, human; conditions: HepG2, IC50 = 13.14 μM, 48 h; versus β-actin; untreated control = 1
# HepG2 cancer cells = assay: Annexin-V-FITC/PI apoptosis/necrosis flow cytometry, HepG2; format: cell-based, human; conditions: HepG2, IC50 = 13.14 μM, 48 h
# Method: (See supplementary information for the detailed methodology of flow cytometric analyses, including “FITC/Annexin-V-FITC/PI differential apoptosis/necrosis”, “DNA content-flow cytometry aided cell cycle”, and “Caspase 3/7 green flow cytometry”).
# Supplementary materials for detailed methodology
# 2.2.2.1. Flow cytometric analysis
# 2.2.2.1.1. FITC/Annexin-V-FITC/PI Differential Apoptosis/Necrosis Assessment Apoptosis and necrosis cell populations are determined using Annexin V-FITC apoptosis detection kit (Abcam Inc., Cambridge Science Park, Cambridge, UK) coupled with 2 fluorescent channels flowcytometry. After treatment with test compounds for 48 h, cells (10^5 cells) are collected by trypsinization and washed twice with ice-cold PBS (pH 7.4). Then, cells are incubated in dark with 0.5 ml of Annexin V-FITC/PI solution for 30 min in dark at room temperature according to manufacturer protocol. After staining, cells are injected via ACEA Novocyte™ flowcytometer (ACEA Biosciences Inc., San Diego, CA, USA) and analyzed for FITC and PI fluorescent signals using FL1 and FL2 signal detector, respectively (λex/em 488/530 […]
# nm for FITC and λex/em 535/617 nm for PI). […]
# NovoExpress™ software (ACEA Biosciences Inc., San Diego, CA, USA).
# 2.2.2.1.3. Caspase- 3/7 green flow cytometry assay
# The ability of compounds 4 and 9 to induce the enzymatic activities of caspase 3/7 in HL60 and HepG2 respectively were assayed using caspase 3/7 green flow cytometry assay method. Briefly, control and the tested compounds treated cells (2.5x10^5/mL) were rinsed with ice cold PBS, cell lysates were prepared and subsequently protein
# [2] = tested on: p-PI3K and p-Akt in HepG2 cells; assay: Western blotting p-PI3K and p-AKT, HepG2; format: cell-based, human; conditions: HepG2, with respect to control untreated cells
# Method: Western blotting analysis was conducted using untreated and treated HepG2 and HL60 cells. Cells were washed in PBS and lysed in a boiling sample buffer (62.5 mM Tris-HCl pH 6.8, 1% SDS, 10% glycerol, and 5% β-mercaptoethanol) for sodium dodecyl sulfate polyacrylamide gel electrophoresis (SDS-PAGE). The lysates were boiled for 5 min with a lamellae buffer, and the proteins were separated by SDS-PAGE and transferred to an Immobilon membrane (Millipore, Burlington, MA, USA). After incubation in 5% non-fat dry milk, Tris-HCL, 0.1% Tween 20 for 1 h, p-PI3K, and p-AKT, primary antibodies were added to one of the membranes containing specimen samples and incubated at 4 °C overnight. Appropriate secondary antibodies were incubated for 2 hr at room temperature. After being washed twice n 1× TBS-T, densitometric analysis of the immunoblots was performed to quantify the amounts of p-PI3K and p-AKT against the control sample by total protein normalization using Image analysis software on the ChemiDoc MP imaging system (version 3) produced by Bio-Rad (Hercules, CA, USA).
# concentration was measured. Lysates were combined with reaction buffer and
# incubated with Caspase 3/7 Detection Reagent (specific colorimetric substrates) at 37
# °C for 6 h. The samples were estimated at λ 488 nm in BD FACS Calibur flow
# 2.2.2.3. […]
# the immunoblots was performed to quantify the amounts of p-PI3K and p-AKT against […]
# Lung Cancer A549 = assay: MTT cytotoxicity assay, A549; format: cell-based; conditions: Homo sapiens, 48 h, read-out: IC50 (µM) ± SEM, Lung Cancer A549
# Method: Cytotoxic activities of the synthesized derivatives were screened against leukemia (HL60), liver (HepG2), breast (MCF-7), and lung (A549) cancer cell lines and non-cancerous THLE2 and WISH cells at different concentrations [0.01–100 µM] for 48 h using the MTT assay (Table 1).
# Human promyelocytic leukemia ”HL-60”, human hepatocellular carcinoma “HepG2”, human breast cancer “MCF-7”, human lung cancer “A549” cell lines, and two normal cell lines, THLE-2 as normal adult liver epithelial cells and WISH as normal epithelial cells, were obtained from American Type Culture Collection “Rockville, MD, USA”.
# According to the manufacturer’s protocol, the cells were seeded in 96-well plates at a concentration of 5 × 10^4 cells per well (200 µL). Different concentrations of the tested compounds were used to test the cytotoxicity. […] A non-linear regression of curve fit was used to calculate the IC50.
smiles,measurement,setting,value
"Cc1c(Br)c(=O)oc2c(Br)c(OC(=O)/C=C/c3ccccc3)c(Br)cc12 [Compound 8b, (2E)-3,6,8-Tribromo-4-methyl-2-oxo-2H-chromen-7-yl Cinnamate]",AKT relative mRNA expression,[1],0.72 fold
same,Bax relative mRNA expression,[1],1.51 fold
same,Bcl-2 relative mRNA expression,[1],0.75 fold
same,P53 relative mRNA expression,[1],3.89 fold
same,PI3K relative mRNA expression,[1],0.75 fold
same,caspase 3 relative mRNA expression,[1],4.63 fold
same,caspase 7 relative mRNA expression,[1],3.63 fold
same,Increase of apoptotic cell death versus control,HepG2 cancer cells,6.88 fold
same,Increase of necrosis-mediated cell death versus control,HepG2 cancer cells,1.66 fold
same,"Necrosis, cell percentage",HepG2 cancer cells; control 0.96%,1.59%
same,levels of p-PI3K and p-Akt,[2],effectively suppressed
same,IC50,Lung Cancer A549,4.63 ± 0.16 µM
